The source of these data is ChEMBL document CHEMBL3867473, “The comparison of neuroprotective effects of isoliquiritigenin and its Phase I metabolites against glutamate-induced HT22 cell death” (2016).

In test [1] the test system is HT-22. Put plainly: Neuroprotective activity in mouse HT22 cells assessed as decrease in glutamate-induced reduction of full-length Bid level at 5 uM pretreated for 12 hrs prior to glutamate-challenge measured after 12 hrs by Western blotting assay. It is filed as functional, cell-based. (In western blotting, separated proteins are transferred to a membrane and probed.)

The subject of test [2] is HT-22. Nature of the test: Inhibition of glutamate-induced increase in ERK phosphorylation in mouse HT22 cells at 5 uM pretreated for 12 hrs followed by glutamate-challenge measured after 12 hrs by Western blotting assay (reference value: 3.01 +/- 0.3). It counts as cell-based.
Test [3] concerns the target MAP kinase p38 (Mus musculus) (UniProt P47811+O08911+Q9WUI1+Q9Z1B7). Put plainly: Inhibition of glutamate-induced increase in p38 phosphorylation in mouse HT22 cells at 5 uM pretreated for 12 hrs followed by glutamate-challenge measured after 12 hrs by Western blotting assay (reference value: 2.46 +/- 0.96). It counts as cell-based. The settings on record: HT-22.
In test [4] the test system is HT-22. Put plainly: Inhibition of glutamate-induced increase in JNK phosphorylation in mouse HT22 cells at 5 uM pretreated for 12 hrs followed by glutamate-challenge measured after 12 hrs by Western blotting assay (reference value: 1.84 +/- 0.11). It is filed as cell-based.
Test [5] relates to HT-22. Put plainly: Neuroprotective activity in mouse HT22 cells assessed as decrease of glutamate-induced ROS production at 5 uM pretreated for 12 hrs prior to glutamate-challenge measured after 12 hrs by CM-H2CDFDA staining-based flow cytometry (reference value: 3.95 +/- 0.01). It is filed as functional.
A short description of test [6]: Neuroprotective activity against glutamate-induced cell death in mouse HT22 cells assessed as cell viability at 10 uM pretreated for 12 hrs prior to glutamate-challenge measured after 12 hrs by MTT assay (reference value: 43.35 +/- 1.48%). It counts as functional. Particulars: HT-22, read-out: Activity. (In general: Tetrazolium assays rely on reduction of a dye to a coloured formazan, in cell work by metabolically active cells.)

The test system of test [7] is HT-22. Put plainly: Neuroprotective activity against glutamate-induced oxidative stress in mouse HT22 cells assessed as ROS level at 5 uM pretreated for 12 hrs prior to glutamate-challenge measured after 12 hrs (reference value: 241.63 +/- 7.98%). It counts as functional.
Test [8] concerns HT-22. Nature of the test: Neuroprotective activity in mouse HT22 cells assessed as decrease in glutamate-induced reduction of full-length Bid level at 5 uM pretreated for 12 hrs prior to glutamate-challenge measured after 12 hrs by Western blotting assay (reference value: 0.9 +/- 0.05). It is filed as functional.
The test system of test [9] is HT-22. Nature of the test: Neuroprotective activity against glutamate-induced oxidative stress in mouse HT22 cells assessed as ROS level at 10 uM pretreated for 12 hrs prior to glutamate-challenge measured after 12 hrs (reference value: 241.63 +/- 7.98%). It counts as functional.
Test [10] has as its system HT-22. Put plainly: Neuroprotective activity in mouse HT22 cells assessed as decrease of glutamate-induced ROS production at 10 uM pretreated for 12 hrs prior to glutamate-challenge measured after 12 hrs by CM-H2CDFDA staining-based flow cytometry (reference value: 3.95 +/- 0.01). It is filed as functional. On the technique in general: In flow cytometry, cells or beads pass a laser one at a time.

Calls of active or inactive are those of the source. No cut-off for these calls is given here.

For the compound `O=C(/C=C/c1ccc(O)cc1)c1cc(O)c(O)cc1O`, in the test on HT-22 [1], the outcome was Active. Also, the fold change (FC) in the test on HT-22 [2] turned out to be 1.64; in [3] it was 1.21; in the test with HT-22 [4] it was 1.08; with HT-22 [5], 2.39. The viability at 10 µM in test [6] came out at 83.5%. The Activity with HT-22 [7] is recorded as 137.94%.

For `O=C1/C(=C/c2ccc(O)c(O)c2)Oc2cc(O)ccc21` [SULFURETIN], the result in the test on HT-22 [1] was Active. Further, the fold change (FC) in the test with HT-22 [2] turned out to be 2.02; in test [3], 1.09; in the test on HT-22 [4], 0.72; with HT-22 [5] it was 1.82. The viability at 10 µM in test [6] was 93.7%. In the test on HT-22 [7], the Activity is listed as 102.25%.

Take `O=C(/C=C/c1ccc(O)cc1)c1ccc(O)cc1O` [ISOLIQUIRITIGENIN]: the “fold change (FC)” value stood at 0.94 in the test on HT-22 [8]; 0.8 with HT-22 [2]; 1.03 in test [3]; 1 in the test with HT-22 [4]; 1.44 in the test on HT-22 [5]. Also, in test [6], the viability at 10 µM came to 78.9%. For the same compound, the Activity with HT-22 [7] is 96.19%.

Regarding `O=C(/C=C/c1ccc(O)c(O)c1)c1ccc(O)cc1O` [BUTEIN], the “fold change (FC)” value in the test with HT-22 [8] stood at 1.22; in the test on HT-22 [2], 1.49; in [3], 0.75; in the test with HT-22 [4], 0.73; in the test on HT-22 [5], 0.69. Moreover, in test [6], the viability at 10 µM came to 92.5%. The Activity in the test on HT-22 [7] worked out at 59.79%.

Take `O=c1c(O)c(-c2ccc(O)c(O)c2)oc2cc(O)cc(O)c12` [QUERCETIN]: in the test on HT-22 [9], the Activity worked out at 53.84%. The “fold change (FC)” value with HT-22 [8] came to 1.16; in the test on HT-22 [2] it was 0.77; with HT-22 [10], 0.79. Besides, the viability at 10 µM in [6] turned out to be 93.7%.
